Data published in patent publication US20160213742A1, “COMPOSITIONS AND METHODS FOR THE TREATMENT OF FUNGAL INFECTIONS” (priority 2013, published 2016).
≈ marks a conversion by molar mass, not a printed value. Entries after “also recorded” stand apart in the source; their conditions may differ.

Legend:
Format in all cases: cell-based
C. albicans ATCC 90028 = settings: ATCC 90028, 24 h
Method: (§1) MIC and MEC assays were run as described in Example 31 with the following exceptions. Starting solutions of all antifungal agents were prepared in 100% DMSO. Stock concentrations were made at 50× the highest final assay concentration and serially diluted 2-fold, 16 times in a 96-well PCR plate (VWR 83007-374). Candida and Aspergillus suspensions from Sabouraud dextrose agar plate cultures were prepared in 0.85% saline at 0.5 McFarland standard (˜0.1 OD530 nm). Candida suspensions were diluted 1:500 in RPMI (MP Biomedicals, cat no. 1060124; buffered with MOPS and adjusted with NaOH to pH 7.0) to a concentration of ˜0.5-2.5×10^3 CFU/mL and Aspergillus suspensions were diluted 1:50 in RPMI to 0.4-5×10^4 CFU/mL final concentration. 98 μL of each cell suspension in RPMI were added to test wells in a 96-well assay plate (Costar cat. no. 3370). A Beckman Multimek 96 liquid handling robot was used to dispense 2 μL of each 50× stock compound into the plate containing 98 μL of each strain in RPMI (2% final solvent concentration). Plates were shaken then incubated at 35° C. for 24-48 h prior to reading. MIC values were read visually at 50% growth inhibition for echinocandins (24 h) and at 100% growth inhibition for amphotericin B (48 h). MEC values (24 h) were read with the aid of a microscope at the lowest echinocandin concentration where rounded/compact hyphal morphology was observed.

C. glabrata ATCC 90030 = settings: ATCC 90030, 24 h
Method: as §1

C. krusei ATCC 14243 = settings: ATCC 14243, 24 h
Method: as §1

[1] = tested on: C. parapsilosis ATCC 22019; settings: ATCC 22019, 24 h
Method: as §1

C. tropicalis ATCC 750 = settings: ATCC 750, 24 h
Method: as §1

A. flavus ATCC MYA-3631 = assay: MEC assay (Example 32); settings: MEC values (24 h), rounded/compact hyphal morphology
Method: as §1

A. fumigatus ATCC 13073 = assay: MEC assay (Example 32); settings: MEC values (24 h), rounded/compact hyphal morphology
Method: as §1

A. fumigatus MYA-3626 = assay: MEC assay (Example 32); settings: MEC values (24 h), rounded/compact hyphal morphology
Method: as §1

A. fumigatus MYA-4609 = assay: MEC assay (Example 32); settings: MEC values (24 h), rounded/compact hyphal morphology
Method: as §1

A. niger ATCC 16404 = assay: MEC assay (Example 32); settings: MEC values (24 h), rounded/compact hyphal morphology
Method: as §1

[2] = tested on: Neutrophils purified from human peripheral blood; assay: Human Neutrophil Transwell Migration Assay; settings: 37° C., 45 minutes, % of the maximum migration possible
Excerpt: Neutrophils were purified from human peripheral blood utilizing PolymorphPrep. Red blood cells were lysed with a lysis buffer and the cells were washed, counted and resuspended in assay buffer. Neutrophils (approximately 50,000 to 100,000 in number) were placed over 5-micon pore sized transwell plates in 24-well format with test compounds in the bottom chamber of each well. A negative control of media alone in the bottom chamber was set up in triplicate. A positive control where the neutrophils were added directly to the bottom well was set up in triplicate.
The plates were incubated at 37° C. for 45 minutes to allow for migration. After this time, migration was confirmed visually and then an aliquot (⅙^th of total cells) from each well was taken for ATP detection via luminescence with ATPlite (PerkinElmer) to quantify the number of migrated cells. The averaged reading for random migration detected in the negative control was subtracted from all readings to obtain the corrected migration number. These numbers were then divided by the averaged reading from the positive control to get the % Neutrophil Migration of the maximum migration possible.

human neutrophils = assay: Microfluidic Neutrophil Chemotaxis assay; settings: for neutrophil (NF) migration counts (FIG. 1): 4 hour timepoint, relative to A. fumigatus alone
Excerpt: Two layers of photoresist (SU8; […] The wafer with patterned photoresist was used as a mold to produce polydimethylsiloxane (PDMS) (Fisher Scientific) devices, which were then bonded to the base of glass-bottom 12- or 24-well plates, using an oxygen plasma machine (Nordson-March). De-identified, fresh human blood samples from healthy volunteers, aged 18 years and older, who were not receiving immunosuppressants, were purchased from Research Blood Components, LLC. Peripheral blood was drawn in tubes containing a final concentration of 5 mM EDTA (Vacutainer; Becton Dickinson) and processed within 2 h of blood collection. Using a sterile technique, neutrophils were isolated from whole blood using HetaSep followed by the EasySep Human Neutrophil Enrichment Kit (STEMCELL Technologies) following the manufacturer's protocol. The purity of neutrophils was assessed to be >98% using the Sysmex KX-21N Hematology Analyzer (Sysmex America, Inc.). White blood cells were isolated using Hetasep followed by a 5 min spin down and wash with 1×PBS. White blood cells were stained with Hoechst (32.4 μM) (Sigma) following the manufacture's protocols. The final aliquots of white blood cells were resuspended in RPMI plus 10% fetal bovine serum (FBS−stock 50 mL FBS/450 mL RPMI) (Sigma-Aldrich) at a concentration of 20,000 cells/2 μL and kept at 37° C. Cells were then immediately introduced into the microfluidic device for the chemotaxis and Aspergillus fumigatus killing assay. All experiments were repeated at least three times with neutrophils or white blood cells from three different healthy donors. Immediately after bonding to the well plate, donut-shaped devices were filled with Aspergillus fumigatus conidia at a concentration of 10^6 cells/mL with or without either Compound 1 or Compound 11 [10 nM], caspofungin acetate [10 nM] and/or a solution of the chemoattractant N-formyl-methionyl-leucyl-phenylalanine (fMLP) [100 nM](Sigma-Aldrich, St. Louis, Mo.). The device was then placed in a vacuum for 15 min. The solution filled all of the FCCs as the air was displaced. The devices were then vigorously washed five times with 1×PBS to remove any residual Aspergillus fumigatus conidia, drug or chemoattractant that was outside of the FCCs. The device was then submerged in 0.5 mL of cell media. Neutrophils or white blood cells (20,000 cells/2 μL) were then pipetted into the cell loading chamber (CLC) using a gel-loading pipette tip. […] Image analysis of cell migration counts and fungi growth was analyzed by hand using Image J software. Neutrophil counts per chamber were counted every 15 min for the first 2 hours of the experiment and then every hour for the remaining 16 hours. Percentage of conidia that converted to hyphal growth was measured by counting conidia loaded per chamber before neutrophils or WBCs were loaded into the chamber and counting numbers of these conidia that grew hyphae by 18 hours. Fungal growth velocity was calculated using Image J. The 16 chambers in each device (n=3) were analyzed for at least three different healthy donors.

[3] = tested on: Aspergillus fumigatus strain AF293; assay: Microfluidic Aspergillus fumigatus Killing Assay with human neutrophils
Excerpt: Microfluidic devices used to measure leukocyte migration in response to Aspergillus fumigatus with or without drug (Compound 1 or Compound 11), antifungal control (caspofungin acetate) and/or chemoattractant (fMLP) were manufactured using known microfabrication techniques. Two layers of photoresist (SU8; Microchem), the first one 10 μm thin (corresponding to the migration channels) and the second one 70 μm thick, corresponding to the focal chemotactic chambers (FCCs) were patterned on one silicon wafer sequentially using two photolithographic masks and processing cycles according to the instructions from the manufacturer. The wafer with patterned photoresist was used as a mold to produce polydimethylsiloxane (PDMS) (Fisher Scientific) devices, which were then bonded to the base of glass-bottom 12- or 24-well plates, using an oxygen plasma machine (Nordson-March).
Aspergillus fumigatus strain AF293 expressing either cytosolic red fluorescent protein (RFP) or green fluorescent protein (GFP) was grown on Sabouraud dextrose agar plates supplemented with 100 μg/mL ampicillin at 30° C. for 3-4 days. Conidia were harvested by gentle scraping followed by washing in ice-cold phosphate buffered saline (PBS) three times. Conidia were immediately used or stored at 4° C. for use within one week.
De-identified, fresh human blood samples from healthy volunteers, aged 18 years and older, who were not receiving immunosuppressants, were purchased from Research Blood Components, LLC. Peripheral blood was drawn in tubes containing a final concentration of 5 mM EDTA (Vacutainer; Becton Dickinson) and processed within 2 h of blood collection. Using a sterile technique, neutrophils were isolated from whole blood using HetaSep followed by the EasySep Human Neutrophil Enrichment Kit ([…] Technologies) following the manufacturer's protocol. The purity of neutrophils was assessed to be >98% using the Sysmex KX-21N Hematology Analyzer (Sysmex America, Inc.). White blood cells were isolated using Hetasep followed by a 5 min spin down and wash with 1×PBS. White blood cells were stained with Hoechst (32.4 μM) (Sigma) following the manufacture's protocols. The final aliquots of white blood cells were resuspended in RPMI plus 10% fetal bovine serum (FBS−stock 50 mL FBS/450 mL RPMI) (Sigma-Aldrich) at a concentration of 20,000 cells/2 μL and kept at 37° C. Cells were then immediately introduced into the microfluidic device for the chemotaxis and Aspergillus fumigatus killing assay. All experiments were repeated at least three times with neutrophils or white blood cells from three different healthy donors.
Immediately after bonding to the well plate, donut-shaped devices were filled with Aspergillus fumigatus conidia at a concentration of 10^6 cells/mL with or without either Compound 1 or Compound 11 [10 nM], caspofungin acetate [10 nM] and/or a solution of the chemoattractant N-formyl-methionyl-leucyl-phenylalanine (fMLP) [100 nM](Sigma-Aldrich, St. Louis, Mo.). The device was then placed in a vacuum for 15 min. The solution filled all of the FCCs as the air was displaced. The devices were then vigorously washed five times with 1×PBS to remove any residual Aspergillus fumigatus conidia, drug or chemoattractant that was outside of the FCCs. The device was then submerged in 0.5 mL of cell media. Neutrophils or white blood cells (20,000 cells/2 μL) were then pipetted into the cell loading chamber (CLC) using a gel-loading pipette tip. Neutrophil migration into the migration channel toward the FCC started immediately and was recorded using time-lapse imaging on a fully automated Nikon TiE microscope (10× magnification) with biochamber heated to 37° C. with 5% carbon dioxide gas. Image analysis of cell migration counts and fungi growth was analyzed by hand using Image J software.
Image analysis of cell migration counts and fungi growth was analyzed by hand using Image J software.

Row | Structure (SMILES) | MIC (C. albicans ATCC 90028) | MIC (C. glabrata ATCC 90030) | MIC (C. krusei ATCC 14243) | MIC [1] | MIC (C. tropicalis ATCC 750) | MEC (A. flavus ATCC MYA-3631) | MEC (A. fumigatus ATCC 13073) | MEC (A. fumigatus MYA-3626) | MEC (A. fumigatus MYA-4609) | MEC (A. niger ATCC 16404) | % Neutrophil Migration ([2]; conc 0.001 μg/mL) | % Neutrophil Migration ([2]; conc 0.01 μg/mL) | % Neutrophil Migration ([2]; conc 0.1 μg/mL) | % Neutrophil Migration ([2]; conc 1 μg/mL) | % Neutrophil Migration ([2]; conc 10 μg/mL) | neutrophil (NF) migration counts (FIG. 1) (human neutrophils; 100 nM fMLP alone, no A. fumigatus) | neutrophil (NF) migration counts (FIG. 1) (human neutrophils; in the presence of Aspergillus fumigatus, Compound 1, Compound 11, caspofungin acetate 10 nM, fMLP 100 nM) | timecourse of neutrophil (PMNs) migration in FCCs (FIG. 4) (human neutrophils; with A. fumigatus, three healthy blood donors, t=0, 8, and 16 hours) | timecourse of A. fumigatus (Af) growth in FCCs (FIG. 4) ([3]; in presence of PMNs, three healthy blood donors, t=0, 8, and 16 hours) | percent hyphal growth compared to remaining conidia (FIG. 2) ([3]; with added neutrophils (NFs), Compound 1, Compound 11, caspofungin acetate 10 nM, fMLP 100 nM, hyphae by 18 hours)
1 | CC[C@H](C)C[C@H](C)CCCCCCCCC(=O)N[C@H]1C[C@@H](O)[C@@H](OCCN)NC(=O)[C@@H]2[C@@H](O)CCN2C(=O)[C@H]([C@H](O)CCNC(=O)[C@H](Cc2ccccc2)NC(=O)[C@H](CC(C)C)NC(=O)[C@H](CC[S+](C)[O-])NC=O)NC(=O)[C@H]([C@H](O)[C@@H](O)c2ccc(O)cc2)NC(=O)[C@@H]2C[C@@H](O)CN2C(=O)[C@H]([C@@H](C)O)NC1=O (some centres unmarked) [Compound 30] | 2 µg/mL (≈ 1.31 µM) | 8 µg/mL (≈ 5.23 µM) | 32 µg/mL (≈ 20.9 µM) | 32 µg/mL (≈ 20.9 µM) | 2 µg/mL (≈ 1.31 µM) | 0.5 µg/mL | 0.25 µg/mL | 1 µg/mL | 0.5 µg/mL | 0.5 µg/mL | 105.2% | 133.6% | 234.3% | 48.2% | 19.7% | – | – | – | – | –
2 | CSCC[C@H](NC=O)C(=O)N[C@@H](CC(C)C)C(=O)N[C@@H](Cc1ccccc1)C(=O)O [fMLP, N-formyl-methionyl-leucyl-phenylalanine, reference compound] | – | – | – | – | – | – | – | – | – | – | – | – | – | – | – | increased NF migration | increased NF migration | migration of PMNs | inhibition of growth of Af | inhibition of Aspergillus fumigatus hyphal growth; also recorded: able to suppress hyphal growth
